Results: patent publication US11370770B2, “3-arylindazoles as selective MEK4 inhibitors” (priority 2019, dated 2022)

Columns and labels:
[1] = molecular target: DMPK (Homo sapiens (Human), UniProt Q09013); assay: KINOMEscan binding assay; conditions: percent of control
[2] = Dynamic light scattering (compound aggregation); format: physicochemical; conditions: 20, 5 and 1 μM in buffer with and without Triton X-100
[3] = molecular target: EPHB4 (Homo sapiens (Human), UniProt P54760); assay: KINOMEscan binding assay; conditions: percent of control
[4] = molecular target: MRCKA (Homo sapiens (Human), UniProt Q5VT25); assay: KINOMEscan binding assay; conditions: percent of control
[5] = molecular target: CSNK1A1L (Homo sapiens (Human), UniProt Q8N752); assay: KINOMEscan binding assay; conditions: percent of control
[6] = molecular target: T1, MEK6 (Homo sapiens (Human), UniProt P52564); assay: MEK family profiling ADP-Glo, MEK6; format: biochemical; conditions: p38α substrate; 0.6 μM ATP; read-out: IC50 MEK isoform 6
[7] = molecular target: CSNK1G1 (Homo sapiens (Human), UniProt Q9HCP0); assay: KINOMEscan binding assay; conditions: percent of control
[8] = molecular target: T1, MEK6; assay: KINOMEscan binding assay; conditions: percent of control
[9] = molecular target: FGFR1 (Homo sapiens (Human), UniProt P11362); assay: KINOMEscan binding assay; conditions: percent of control
[10] = molecular target: PRKG1 (Homo sapiens (Human), UniProt Q13976); assay: KINOMEscan binding assay; conditions: percent of control
[11] = molecular target: MEK3 (Homo sapiens (Human), UniProt P46734); assay: KINOMEscan binding assay; conditions: percent of control
[12] = test system: PRP6; assay: KINOMEscan binding assay; conditions: percent of control
[13] = molecular target: ERK2 (Homo sapiens (Human), UniProt P28482); assay: KINOMEscan binding assay; conditions: percent of control
[14] = molecular target: PKN2 (Homo sapiens (Human), UniProt Q16513); assay: KINOMEscan binding assay; conditions: percent of control
[15] = molecular target: MEK2 (Homo sapiens (Human), UniProt P36507); assay: KINOMEscan binding assay; conditions: percent of control
[16] = molecular target: TNIK (Homo sapiens (Human), UniProt Q9UKE5); assay: KINOMEscan binding assay; conditions: percent of control
[17] = molecular target: (Homo sapiens (Human), UniProt P49674); assay: KINOMEscan binding assay; conditions: CSML1E; percent of control
[18] = molecular target: IKK-EPSILON (Homo sapiens (Human), UniProt Q14164); assay: KINOMEscan binding assay; conditions: percent of control
[19] = molecular target: TRKC (Homo sapiens (Human), UniProt Q16288); assay: KINOMEscan binding assay; conditions: percent of control
[20] = molecular target: CSML2A1 (Homo sapiens (Human), UniProt P68400); assay: KINOMEscan binding assay; conditions: percent of control
[21] = molecular target: ALK(L1196M) (Homo sapiens (Human), UniProt Q9UM73, L1196M); assay: KINOMEscan binding assay; conditions: percent of control
[22] = molecular target: (Homo sapiens (Human), UniProt P49761); assay: KINOMEscan binding assay; conditions: C;L3; percent of control
[23] = molecular target: MEK1 (Homo sapiens (Human), UniProt Q02750); assay: KINOMEscan binding assay; conditions: percent of control
[24] = test system: PC3M cells; assay: Scratch wound assay; format: cell-based

T1 sequence (P52564 whole entry, canonical isoform): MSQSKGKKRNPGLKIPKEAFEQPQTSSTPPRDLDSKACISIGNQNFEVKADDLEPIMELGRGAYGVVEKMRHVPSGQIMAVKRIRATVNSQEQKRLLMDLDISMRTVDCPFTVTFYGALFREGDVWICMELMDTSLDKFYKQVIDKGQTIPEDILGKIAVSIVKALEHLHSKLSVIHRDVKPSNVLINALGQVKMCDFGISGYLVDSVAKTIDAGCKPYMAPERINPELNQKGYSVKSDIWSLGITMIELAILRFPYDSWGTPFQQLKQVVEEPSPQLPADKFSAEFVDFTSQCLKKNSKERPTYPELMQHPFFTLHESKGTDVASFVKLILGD
Sequence of (Homo sapiens (Human), UniProt P49761) (P49761 whole entry): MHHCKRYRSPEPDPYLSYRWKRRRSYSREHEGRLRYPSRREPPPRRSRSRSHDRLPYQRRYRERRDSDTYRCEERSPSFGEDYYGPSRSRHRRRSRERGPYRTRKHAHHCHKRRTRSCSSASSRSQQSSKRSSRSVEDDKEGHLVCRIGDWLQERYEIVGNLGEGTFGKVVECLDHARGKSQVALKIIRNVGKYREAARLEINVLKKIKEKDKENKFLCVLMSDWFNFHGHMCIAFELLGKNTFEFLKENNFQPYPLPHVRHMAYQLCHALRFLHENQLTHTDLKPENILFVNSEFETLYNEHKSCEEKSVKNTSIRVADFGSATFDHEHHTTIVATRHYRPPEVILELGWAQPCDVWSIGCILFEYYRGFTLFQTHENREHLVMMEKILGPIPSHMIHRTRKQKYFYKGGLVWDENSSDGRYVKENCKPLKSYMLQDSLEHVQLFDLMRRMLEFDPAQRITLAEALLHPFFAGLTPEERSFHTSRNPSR
Sequence of CSNK1A1L (Q8N752 whole entry, canonical isoform): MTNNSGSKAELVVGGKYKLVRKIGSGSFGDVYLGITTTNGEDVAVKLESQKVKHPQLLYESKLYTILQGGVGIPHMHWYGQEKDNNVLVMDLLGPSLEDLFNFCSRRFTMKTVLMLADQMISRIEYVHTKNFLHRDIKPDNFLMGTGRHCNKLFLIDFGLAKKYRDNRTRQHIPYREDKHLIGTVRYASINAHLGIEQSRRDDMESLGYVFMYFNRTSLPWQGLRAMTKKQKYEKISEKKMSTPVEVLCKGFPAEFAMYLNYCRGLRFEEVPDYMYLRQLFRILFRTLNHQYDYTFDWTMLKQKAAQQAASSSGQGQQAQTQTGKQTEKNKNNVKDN
Sequence of ERK2 (P28482 whole entry): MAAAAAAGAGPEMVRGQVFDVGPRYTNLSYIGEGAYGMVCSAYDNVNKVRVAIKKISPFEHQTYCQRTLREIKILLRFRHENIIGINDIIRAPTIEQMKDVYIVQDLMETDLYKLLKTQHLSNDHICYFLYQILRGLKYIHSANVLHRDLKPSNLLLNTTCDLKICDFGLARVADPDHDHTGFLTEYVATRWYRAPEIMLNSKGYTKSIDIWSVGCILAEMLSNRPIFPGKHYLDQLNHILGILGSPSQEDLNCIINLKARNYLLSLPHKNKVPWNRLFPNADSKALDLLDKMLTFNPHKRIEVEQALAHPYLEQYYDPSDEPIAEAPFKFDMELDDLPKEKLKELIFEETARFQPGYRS
Sequence of PRKG1 (Q13976 whole entry): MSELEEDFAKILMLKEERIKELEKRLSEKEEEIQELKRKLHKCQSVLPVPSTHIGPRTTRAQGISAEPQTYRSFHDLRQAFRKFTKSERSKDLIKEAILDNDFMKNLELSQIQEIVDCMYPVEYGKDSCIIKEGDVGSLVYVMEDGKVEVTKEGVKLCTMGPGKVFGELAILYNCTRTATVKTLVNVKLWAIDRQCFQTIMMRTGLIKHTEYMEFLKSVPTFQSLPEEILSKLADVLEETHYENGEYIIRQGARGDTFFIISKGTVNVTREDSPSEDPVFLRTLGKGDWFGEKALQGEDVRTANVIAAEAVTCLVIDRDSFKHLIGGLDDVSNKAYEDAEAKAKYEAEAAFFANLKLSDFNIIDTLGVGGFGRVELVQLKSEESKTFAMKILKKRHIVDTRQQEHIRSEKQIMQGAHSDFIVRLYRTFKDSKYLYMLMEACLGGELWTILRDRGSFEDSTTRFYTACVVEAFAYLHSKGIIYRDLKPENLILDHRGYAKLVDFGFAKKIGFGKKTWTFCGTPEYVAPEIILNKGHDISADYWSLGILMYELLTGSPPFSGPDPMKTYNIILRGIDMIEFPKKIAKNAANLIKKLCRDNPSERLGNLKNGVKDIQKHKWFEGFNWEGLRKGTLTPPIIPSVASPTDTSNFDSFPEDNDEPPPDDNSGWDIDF
Sequence of (Homo sapiens (Human), UniProt P49674) (P49674 whole entry): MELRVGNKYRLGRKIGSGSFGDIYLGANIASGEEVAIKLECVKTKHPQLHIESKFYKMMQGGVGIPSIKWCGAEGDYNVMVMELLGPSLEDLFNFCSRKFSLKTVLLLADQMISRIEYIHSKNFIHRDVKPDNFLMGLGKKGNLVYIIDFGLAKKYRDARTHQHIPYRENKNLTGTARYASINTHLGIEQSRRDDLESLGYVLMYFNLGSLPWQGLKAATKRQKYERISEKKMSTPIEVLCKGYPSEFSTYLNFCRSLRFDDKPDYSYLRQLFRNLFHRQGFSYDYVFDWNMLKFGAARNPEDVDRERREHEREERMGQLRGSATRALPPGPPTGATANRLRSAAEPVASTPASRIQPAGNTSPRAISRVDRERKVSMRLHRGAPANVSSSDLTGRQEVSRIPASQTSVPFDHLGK
Sequence of MRCKA (Q5VT25 whole entry): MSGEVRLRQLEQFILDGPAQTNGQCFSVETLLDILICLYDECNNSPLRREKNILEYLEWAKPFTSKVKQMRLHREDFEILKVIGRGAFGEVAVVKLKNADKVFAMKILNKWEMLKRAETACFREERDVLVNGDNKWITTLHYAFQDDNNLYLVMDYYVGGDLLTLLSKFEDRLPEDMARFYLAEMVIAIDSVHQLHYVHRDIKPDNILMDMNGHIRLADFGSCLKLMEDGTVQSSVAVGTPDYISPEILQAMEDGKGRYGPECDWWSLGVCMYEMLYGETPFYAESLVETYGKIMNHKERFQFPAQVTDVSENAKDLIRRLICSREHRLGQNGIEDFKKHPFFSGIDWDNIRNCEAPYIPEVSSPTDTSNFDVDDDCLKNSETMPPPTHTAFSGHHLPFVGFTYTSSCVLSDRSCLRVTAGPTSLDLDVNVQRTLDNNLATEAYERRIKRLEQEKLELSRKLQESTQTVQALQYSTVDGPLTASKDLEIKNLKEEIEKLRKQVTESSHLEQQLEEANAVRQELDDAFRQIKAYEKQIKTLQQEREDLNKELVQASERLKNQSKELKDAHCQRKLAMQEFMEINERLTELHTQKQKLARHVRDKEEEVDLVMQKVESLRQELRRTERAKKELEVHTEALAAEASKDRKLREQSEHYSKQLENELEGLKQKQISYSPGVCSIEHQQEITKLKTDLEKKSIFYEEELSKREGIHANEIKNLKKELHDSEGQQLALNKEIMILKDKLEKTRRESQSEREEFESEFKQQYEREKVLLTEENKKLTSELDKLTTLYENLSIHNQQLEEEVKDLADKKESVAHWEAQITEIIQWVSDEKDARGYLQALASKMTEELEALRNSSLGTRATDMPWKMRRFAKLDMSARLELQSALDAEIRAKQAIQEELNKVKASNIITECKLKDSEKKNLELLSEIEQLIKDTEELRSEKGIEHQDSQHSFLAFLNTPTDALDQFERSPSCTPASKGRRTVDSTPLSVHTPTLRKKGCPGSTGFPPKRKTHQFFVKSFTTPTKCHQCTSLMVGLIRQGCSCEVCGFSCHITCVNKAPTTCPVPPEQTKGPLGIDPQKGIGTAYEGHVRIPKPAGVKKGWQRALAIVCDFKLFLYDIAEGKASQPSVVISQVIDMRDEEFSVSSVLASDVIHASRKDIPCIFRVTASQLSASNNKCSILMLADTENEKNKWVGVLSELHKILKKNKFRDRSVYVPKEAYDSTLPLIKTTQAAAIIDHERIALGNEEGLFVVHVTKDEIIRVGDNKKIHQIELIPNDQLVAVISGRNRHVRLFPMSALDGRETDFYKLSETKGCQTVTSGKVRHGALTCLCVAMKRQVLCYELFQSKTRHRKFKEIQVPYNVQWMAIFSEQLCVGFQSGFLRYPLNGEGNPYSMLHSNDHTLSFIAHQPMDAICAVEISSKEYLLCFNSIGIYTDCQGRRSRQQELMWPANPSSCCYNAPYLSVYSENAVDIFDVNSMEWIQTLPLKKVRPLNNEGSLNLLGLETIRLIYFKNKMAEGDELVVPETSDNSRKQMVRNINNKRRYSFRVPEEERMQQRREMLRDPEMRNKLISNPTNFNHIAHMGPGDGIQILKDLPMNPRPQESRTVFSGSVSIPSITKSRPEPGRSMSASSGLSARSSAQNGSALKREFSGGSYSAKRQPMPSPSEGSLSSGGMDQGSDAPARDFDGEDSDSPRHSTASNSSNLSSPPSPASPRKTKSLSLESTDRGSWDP
Sequence of CSML2A1 (P68400 whole entry): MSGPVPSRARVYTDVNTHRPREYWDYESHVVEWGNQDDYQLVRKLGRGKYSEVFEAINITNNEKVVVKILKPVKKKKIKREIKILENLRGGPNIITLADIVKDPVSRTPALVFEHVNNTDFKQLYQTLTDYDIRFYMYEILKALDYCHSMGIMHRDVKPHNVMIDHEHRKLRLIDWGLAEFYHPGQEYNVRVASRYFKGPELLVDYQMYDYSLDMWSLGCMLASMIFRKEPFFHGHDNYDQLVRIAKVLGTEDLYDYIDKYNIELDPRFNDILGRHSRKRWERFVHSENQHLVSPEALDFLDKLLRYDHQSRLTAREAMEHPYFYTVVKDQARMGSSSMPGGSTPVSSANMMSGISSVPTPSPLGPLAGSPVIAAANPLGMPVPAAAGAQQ

| Structure (SMILES) | % Ctrl @ 10000 nM [1] | % Ctrl @ 10000 nM [3] | % Ctrl @ 10000 nM [4] | % Ctrl @ 10000 nM [5] | IC50 [6] | % Ctrl @ 10000 nM [7] | % Ctrl @ 10000 nM [8] | % Ctrl @ 10000 nM [9] | % Ctrl @ 10000 nM [10] | % Ctrl @ 10000 nM [11] | % Ctrl @ 10000 nM [12] | % Ctrl @ 10000 nM [13] | % Ctrl @ 10000 nM [14] | % Ctrl @ 10000 nM [15] | % Ctrl @ 10000 nM [16] | % Ctrl @ 10000 nM [17] | % Ctrl @ 10000 nM [18] | % Ctrl @ 10000 nM [19] | % Ctrl @ 10000 nM [20] | % Ctrl @ 10000 nM [21] | further results |
| --- | --- | --- | --- | --- | --- | --- | --- | --- | --- | --- | --- | --- | --- | --- | --- | --- | --- | --- | --- | --- | --- |
| O=C(O)c1cccc(-c2n[nH]c3ccccc23)c1 [Compound 6a, 3-(1H-indazol-3-yl)benzoic Acid] | 100 % Ctrl | 89 % Ctrl | 95 % Ctrl | 87 % Ctrl | 10 µM | 80 % Ctrl | 91 % Ctrl | 100 % Ctrl | 100 % Ctrl | 13 % Ctrl | 76 % Ctrl | 96 % Ctrl | 100 % Ctrl | 60 % Ctrl | 65 % Ctrl | 88 % Ctrl | 48 % Ctrl | 39 % Ctrl | 0.75 % Ctrl | 59 % Ctrl | compound aggregates by DLS [2]: under no conditions were aggregates observed; % Ctrl @ 10000 nM [22]: 94 % Ctrl |
| O=C(O)c1ccc(-c2n[nH]c3cc(F)ccc23)cc1 [Compound 6ff, 4-(6-fluoro-2H-indazol-3-yl)benzoic Acid] | 100 % Ctrl | 100 % Ctrl | 89 % Ctrl | 93 % Ctrl | 11 µM | 90 % Ctrl | 78 % Ctrl | 99 % Ctrl | 100 % Ctrl | 1.6 % Ctrl | 52 % Ctrl | 100 % Ctrl | 95 % Ctrl | 61 % Ctrl | 3.6 % Ctrl | 100 % Ctrl | 43 % Ctrl | 11 % Ctrl | 0 % Ctrl | 61 % Ctrl | % Ctrl @ 10000 nM [23]: 49 % Ctrl; efficacy in wound scratch assay ([24]; 10 μM): no efficacy; efficacy in wound scratch assay ([24]; 25 μM): no efficacy; Percent Difference, DMSO vs. 10 uM inhibitor ([24]; PC3M cells, 10 μM, wound gap 0 vs 20 hrs): −1.65%; Percent Difference, DMSO vs. 25 uM inhibitor ([24]; PC3M cells, 25 μM, wound gap 0 vs 20 hrs): −0.16%; % Ctrl @ 10000 nM [22]: 100 % Ctrl |
